Reference: patent publication US9012439B2, “Use of electrophilic compounds for inducing platelet production or maintaining platelet function” (University of Rochester, priority 2007, dated 2015)
Entries after “also recorded” stand apart in the source; their conditions may differ.

Tests used:
[1] = tested on: Meg-01 cells; assay: Platelet production from Meg-01 cells (flow cytometry); format: cell-based, human
Procedure: (§1) Meg-01 and M07e cells were purchased from the American Type Culture Collection (Rockville, Md.) and Dami cells were a generous gift from Dr. Patricia J. Simpson-Haidaris (University of Rochester). All cells were cultured in RPMI-1640 tissue culture medium (Invitrogen) supplemented with 5% fetal bovine serum (FBS; Invitrogen), 10 mM HEPES (N-2-hydroxyethylpiperazine-N′-2-ethanesulfonic acid; Sigma), 2 mM L-glutamine (Invitrogen), 4.5 g/L glucose (Invitrogen), and 50 μg/mL gentamicin (Invitrogen). M07e cells were also supplemented with 100 ng/mL of granulocyte monocyte-colony stimulating factor (GM-CSF, R&D Systems). All treatments were performed in normal growth media. Dimethyl sulfoxide (DMSO) was used as a vehicle (control) in the experiments described below.
Platelets were isolated from megakaryocytes by centrifugation at 150 xg for 10 min. Supernatants underwent sequential centrifugation (500 xg for 10 min and 1000×g for 10 min). The remaining platelet pellet was fixed then permeabilized with a CD61 or CD41 antibody. 7-AAD (BD Pharmingen) was added for 10 min before analyzing the cells by flow cytometry. Platelets were identified using three well-described parameters (Patel et al., “The Biogenesis of Platelets from Megakaryocyte Proplatelets,” J Clin Invest 115:3348-3354 (2005); Breton-Gorius et al., “Expression of Platelet Proteins During the In Vitro and In Vivo Differentiation of Megakaryocytes and Morphological Aspects of Their Maturation,” Semin Hematol 23:43-67 (1986); Ogura et al., “Establishment of a Novel Human Megakaryoblastic Leukemia Cell Line, MEG-01, With Positive Philadelphia Chromosome,” Blood 66:1384-1392 (1985) and Franks et al., “A Fluorescence Microscopy Method for Quantifying Levels of Prostaglandin Endoperoxide H Synthase-1 and CD-41 in MEG-01 Cells,” Biol Proced Online 3:54-63 (2001), each of which is hereby incorporated by reference in its entirety), size (using normal human platelets as a control), presence of CD61 or CD41 and lack of DNA as determined by the absence of 7-AAD staining Ten thousand platelet events were collected and platelets were quantified by rate (platelet events/second) (Chung et al., “Platelet Activation in Acute, Decompensated Congestive Heart Failure,” Thromb Res 120:709-713 (2007), which is hereby incorporated by reference in its entirety.
A 19 by target sequence was selected to knock down PPARγ. PPARγ was cloned downstream of the RNA polymerase III U6 promoter and subcloned into a FG12 lentiviral vector which expresses green fluorescent protein (GFP) under the Ubiquitin C promoter. HEK 293 cells expressing this siRNA PPARγ had reduced PPARγ protein levels. To make the lentivirus, HEK 293 cells were co-transfected with 3 plasmids: the envelope vector (CMV-VSVG), the transfer vector (FG12-shRNAPPAR), and the packaging construct (pCMVΔ89.2 (gag/pol proteins)). Viral supernatants were collected every 8 h for 2 days and concentrated by ultracentrifugation at 50,000×g for 2 h at 4° C. using a Beckman SW 28 rotor. Viral titers were determined by infection of HeLa cells with serial dilutions of the viral stocks. Meg-01 cells were infected at a multiplicity of infection (MOI) of 20. After 48 h, approximately 56% of the PPARγ siRNA cells were transduced as determined by flow cytometry. The GFP positive (+) cells were then sorted by FACS and grown in RPMI with 5% FBS.

[2] = tested on: Dami cells; assay: Platelet production from Dami cells (flow cytometry); format: cell-based; details: 10 μM, 24 h
Procedure: as §1
Platelets were isolated from megakaryocytes by centrifugation at 150 xg for 10 min. Supernatants underwent sequential centrifugation (500 xg for 10 min and 1000×g for 10 min). The remaining platelet pellet was fixed then permeabilized with a CD61 or CD41 antibody. 7-AAD (BD Pharmingen) was added for 10 min before analyzing the cells by flow cytometry. […]

CCCCCC=CC=C1C(=O)C=C[C@@H]1CC=CCCCC(=O)O [15d-PGJ2, 15-deoxy-Δ^12,14 prostaglandin J2]
platelet-enhancing effect after PPARγ protein knock-down ([1]; Meg-01 cells infected with PPARγ siRNA lentivirus, 15d-PGJ2 24 h): failed to attenuate the platelet-enhancing effects of 15d-PGJ2
platelet production ([1]; Meg-01 cells, 10 μM, 24 h): increased platelet production; also recorded: enhanced Meg-01 platelet production
platelet production with increasing concentrations ([1]; Meg-01 cells, increasing concentrations, 24 h): dose-dependent increase in platelet production
platelet production [2]: increased platelet production
